The structures appear in SMILES notation. Bounds are passed on as bounds.

As a reminder, the IC50 is the concentration needed to halve the response being measured.

The assay is described as follows: Inhibition interleukin-5 in mouse Y16 cells after 48 hrs by WST-1 assay.
For the compound `O=C(CCc1coc2cccc(OCC3CCCCC3)c2c1=O)c1ccc(C(F)(F)F)cc1`, the IC50 is more than 30 µM.

For the compound `N#Cc1ccc(C(O)CCc2coc3cccc(OCC4CCCCC4)c3c2=O)cc1` (centres undefined), the half-maximal inhibitory concentration (IC50) turned out to be 15 µM.

Consider `O=c1c(CCC(O)c2ccc3ccccc3c2)coc2cccc(OCC3CCCCC3)c12` (centres undefined), for which the half-inhibitory concentration (IC50) came to 17 µM.

Take `O=C(CCc1coc2cccc(OCC3CCCCC3)c2c1=O)c1ccc2ccccc2c1`: the IC50 is more than 30 µM.

In turn, `O=c1c(CCC(O)c2ccc(Cl)c(Cl)c2)coc2cccc(OCC3CCCCC3)c12` (centres undefined) displayed an IC50 of 7.9 µM.

Consider `CC(C)(C)c1ccc(C(O)CCc2coc3cccc(OCC4CCCCC4)c3c2=O)cc1` (centres undefined), for which the 50% inhibitory concentration (IC50) is more than 30 µM.

`O=C(CCc1coc2cccc(OCC3CCCCC3)c2c1=O)c1ccc(Cl)cc1` registered an IC50 of 14 µM.

As for `CC(C)(C)c1ccc(C(=O)CCc2coc3cccc(OCC4CCCCC4)c3c2=O)cc1`, the concentration for half-maximal inhibition (IC50) is more than 30 µM.

In turn, `O=c1c(CCC(O)c2ccccc2)coc2cccc(OCC3CCCCC3)c12` (centres undefined) gave an IC50 of 12 µM.

Consider `O=c1c(CCC(O)c2ccc(C(F)(F)F)cc2)coc2cccc(OCC3CCCCC3)c12` (centres undefined), for which the IC50 is more than 30 µM.

`O=c1c(CCC(O)c2ccc(O)cc2)coc2cccc(OCC3CCCCC3)c12` (centres undefined) had a concentration for half-maximal inhibition (IC50) of 4 µM.

`O=C(CCC1COc2cccc(OCC3CCCCC3)c2C1=O)c1ccc(Cl)c(Cl)c1` (centres undefined) yielded an IC50 of more than 30 µM.

Take `COc1ccc(C(=O)CCC2COc3cccc(OCC4CCCCC4)c3C2=O)cc1` (centres undefined): the IC50 is more than 30 µM.

`O=C(CCc1coc2cccc(OCC3CCCCC3)c2c1=O)c1ccccc1` showed a half-inhibitory concentration (IC50) of more than 30 µM.

`Cc1ccc(C(O)CCc2coc3cccc(OCC4CCCCC4)c3c2=O)cc1` (centres undefined) gave an IC50 of more than 30 µM.

In turn, `O=c1c(CCC(O)c2ccc(Cl)cc2)coc2cccc(OCC3CCCCC3)c12` (centres undefined) gave an IC50 of 9 µM.

For the compound `N#Cc1ccc(C(=O)CCc2coc3cccc(OCC4CCCCC4)c3c2=O)cc1`, the 50% inhibitory concentration (IC50) turned out to be 17 µM.

`COc1ccc(C(=O)CCc2coc3cccc(OCC4CCCCC4)c3c2=O)cc1` yielded an IC50 of 16 µM.

In turn, `Cc1ccc(C(=O)CCc2coc3cccc(OCC4CCCCC4)c3c2=O)cc1` yielded an IC50 of more than 30 µM.

For the compound `O=c1c(CCC(O)c2ccc(F)cc2)coc2cccc(OCC3CCCCC3)c12` (centres undefined), half-maximal inhibition (IC50) required 9 µM.

In turn, `O=C(CCc1coc2cccc(OCC3CCCCC3)c2c1=O)c1ccc(F)cc1` yielded an IC50 of 20 µM.

On to `COc1ccc(C(O)CCc2coc3cccc(OCC4CCCCC4)c3c2=O)cc1` (centres undefined), for which the concentration for half-maximal inhibition (IC50) was found to be 6.5 µM.

In the case of `O=C(CCc1coc2cccc(OCC3CCCCC3)c2c1=O)c1ccc(Cl)c(Cl)c1`, the IC50 came to 22 µM.

Compound `O=C(CCc1coc2cccc(OCC3CCCCC3)c2c1=O)c1ccc(O)cc1` displayed a 50% inhibitory concentration (IC50) of 15 µM.

The values above are taken from BindingDB's records for doi:10.1016/j.bmc.2013.02.037 (Chungnam National University, 2013).
